# What was measured:
# [1] = tested on: cancer cell lines either wild-type for ARID1A (WT) or carrying deleterious ARID1A alterations (LOF); experiment: IncuCyte growth assays in ARID1A WT and LOF cancer cell line panel; assay type: cell-based; conditions: tissue-matched cancer cell line panel
# Description: FIG. 12: EC50 values for the ATRI AZD-6738 from IncuCyte growth assays in a panel of cancer cell lines either wild-type for ARID1A (WT) or carrying deleterious ARID1A alterations (LOF). Data (circles) from two independent experiments with mean (bars)±SD (error bars).
# (§1) In addition to the genes disclosed herein, we investigated ATRi sensitivity to the loss of ARID1A, which was previously described in Williamson et al., Nat. Comms., 7:13837, 2016, as a bona fide biomarker of ATRi sensitivity. Three isogenic ARID1A wild-type (WT) and ARID1A-deficient (ARID1A−/−) human cell line pairs were employed: HCT116, MCF10A and BEAS2B. […] To strengthen this observation, we assembled a panel of tissue-matched cancer cell lines that were either ARID1A WT or carried deleterious ARID1A alterations (LOF) and measured their sensitivity to AZD-6738. […] In aggregate, we believe that the genes named in this Application present a list of bona fide determinants of ATRi sensitivity as opposed to certain 5 biomarkers described in the scientific literature.
# [2] = tested on: ARID1A wild-type (WT) and knockout (ARID1A−/−) BEAS2B cells; experiment: IncuCyte growth (confluency), isogenic ARID1A WT and -/- BEAS2B; assay type: cell-based, human; conditions: BEAS2B ARID1A−/− vs WT
# Protocol: FIG. 11C: Dose-response curves of isogenic ARID1A wild-type (WT) and knockout (ARID1A−/−) BEAS2B cells treated with AZD-6738. Cell growth (confluency) was measured by IncuCyte automated microscopy. Data (circles) were fitted to a four-parameter dose-response model (solid lines).
# as §1
# [3] = tested on: ARID1A wild-type (WT) and knockout (ARID1A−/−) MCF1A cells; experiment: IncuCyte growth (confluency), isogenic ARID1A WT and -/- MCF10A; assay type: cell-based, human; conditions: MCF10A ARID1A−/− vs WT
# Protocol: FIG. 11B: Dose-response curves of isogenic ARID1A wild-type (WT) and knockout (ARID1A−/−) MCF1A cells treated with AZD-6738. Cell growth (confluency) was measured by IncuCyte automated microscopy. Data (circles) were fitted to a four-parameter dose-response model (solid lines).
# as §1
# [4] = tested on: ARID1A wild-type (WT) and knockout (ARID1A−/−) HCT116 cells; experiment: IncuCyte growth (confluency), isogenic ARID1A WT and -/- HCT116; assay type: cell-based, human; conditions: HCT116 ARID1A−/− vs WT
# Protocol: FIG. 11A: Dose-response curves of isogenic ARID1A wild-type (WT) and knockout (ARID1A−/−) HCT116 cells treated with AZD-6738. Cell growth (confluency) was measured by IncuCyte automated microscopy. Data (circles) were fitted to a four-parameter dose-response model (solid lines).
# as §1
smiles,measurement,setting,value
C[C@@H]1COCCN1c1cc(C2([S@](C)(=N)=O)CC2)nc(-c2cc[nH]c3nccc2-3)n1 [AZD-6738],Sensitivity (EC50) of ARID1A LOF vs ARID1A WT cell lines,[1],no significant trend towards higher ATRi sensitivity in ARID1A LOF cell lines
same,Sensitivity upon ARID1A deficiency,[2],did not lead to sensitivity
same,Sensitivity upon ARID1A deficiency,[3],did not lead to sensitivity
same,Sensitivity upon ARID1A deficiency,[4],did not lead to sensitivity
